Laboratory results reported in US20170233413A1, “SUBSTITUTED ANNULATED PYRIMIDINES AND USE THEREOF” (Bayer Pharma Aktiengesellschaft, priority 2014, published 2017).

Assays:
[1] = biological target: T1, human phosphodiesterase 5 (PDE 5) (Homo sapiens, UniProt O76074); experiment: Inhibition of human phosphodiesterase 5 (PDE 5); format: biochemical; settings: PDE 5 preparation from human platelets; in some cases means of individual determinations
T1 construct: PDE 5 preparations are obtained from human platelets by disruption; from tissue; host or cells: human platelets
Experimental: B-3. Inhibition of Human Phosphodiesterase 5 (PDE 5)
PDE 5 preparations are obtained from human platelets by disruption (Microfluidizer®, 800 bar, 3 passes), followed by centrifugation (75 000 g, 60 min, 4° C.) and ion exchange chromatography of the supernatant on a Mono Q 10/10 column (linear sodium chloride gradient, elution with a 0.2-0.3M solution of sodium chloride in buffer (20 mM Hepes pH 7.2, 2 mM magnesium chloride). Fractions having PDE 5 activity are combined (PDE 5 preparation) and stored at −80° C.
To determine their in vitro action on human PDE 5, the test substances are dissolved in 100% DMSO and serially diluted. Typically, dilution series (1:3) from 200 μM to 0.091 μM are prepared (resulting final concentrations in the test: 4 μM to 0.0018 μM). In each case 2 μl of the diluted substance solutions are placed into the wells of microtitre plates (Isoplate-96/200W; Perkin Elmer). Subsequently, 50 μl of a dilution of the above-described PDE 5 preparation are added. The dilution of the PDE 5 preparation is chosen such that during the later incubation less than 70% of the substrate are converted (typical dilution: 1:100; dilution buffer: 50 mM tris/hydrochloric acid pH 7.5, 8.3 mM magnesium chloride, 1.7 mM EDTA, 0.2% BSA). The substrate, [8-^3H] cyclic guanosine-3′,5′-monophosphate (1 μCi/μl; Perkin Elmer), is diluted 1:2000 with assay buffer (50 mM tris/hydrochloric acid pH 7.5, 8.3 mM magnesium chloride, 1.7 mM EDTA) to a concentration of 0.0005 μCi/μl. By addition of 50 μl (0.025 μCi) of the diluted substrate, the enzyme reaction is finally started. The test mixtures are incubated at room temperature for 60 min and the reaction is stopped by adding 25 μl of a suspension of 18 mg/ml yttrium scintillation proximity beads in water (phosphodiesterase beads for SPA assays, RPNQ 0150, Perkin Elmer). The microtitre plates are sealed with a film and left to stand at room temperature for 60 min. Subsequently, the plates are analysed for 30 s per well in a Microbeta scintillation counter (Perkin Elmer). IC50 values are determined using the graphic plot of the substance concentration against percentage PDE 5 inhibition.

[2] = biological target: T2, recombinant guanylate cyclase reporter cell line (Rattus norvegicus, UniProt P19686+P20595); experiment: Effect on a recombinant guanylate cyclase reporter cell line; format: cell-based; settings: MEC = minimum effective concentration; in some cases means of individual determinations
T2 construct: expressed in transfected cells
T2 sequence (P19686 1-690): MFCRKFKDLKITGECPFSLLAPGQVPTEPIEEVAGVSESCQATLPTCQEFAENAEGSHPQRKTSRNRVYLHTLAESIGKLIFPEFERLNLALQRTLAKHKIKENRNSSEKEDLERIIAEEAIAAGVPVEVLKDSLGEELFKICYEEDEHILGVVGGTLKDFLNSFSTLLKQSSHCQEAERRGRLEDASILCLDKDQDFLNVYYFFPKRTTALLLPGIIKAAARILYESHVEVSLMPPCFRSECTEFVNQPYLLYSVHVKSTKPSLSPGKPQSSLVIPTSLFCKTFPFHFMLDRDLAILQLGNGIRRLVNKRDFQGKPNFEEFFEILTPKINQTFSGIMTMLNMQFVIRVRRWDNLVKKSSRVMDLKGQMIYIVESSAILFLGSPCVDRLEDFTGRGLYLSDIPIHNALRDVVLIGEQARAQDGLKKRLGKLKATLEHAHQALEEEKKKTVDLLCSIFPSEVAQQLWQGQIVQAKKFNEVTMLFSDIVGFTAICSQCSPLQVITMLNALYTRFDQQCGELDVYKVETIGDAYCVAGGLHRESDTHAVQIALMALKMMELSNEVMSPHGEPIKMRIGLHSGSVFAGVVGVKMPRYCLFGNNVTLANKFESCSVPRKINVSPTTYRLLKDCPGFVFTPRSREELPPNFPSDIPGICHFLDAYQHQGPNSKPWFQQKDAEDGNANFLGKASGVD
T2 sequence (P20595 1-619): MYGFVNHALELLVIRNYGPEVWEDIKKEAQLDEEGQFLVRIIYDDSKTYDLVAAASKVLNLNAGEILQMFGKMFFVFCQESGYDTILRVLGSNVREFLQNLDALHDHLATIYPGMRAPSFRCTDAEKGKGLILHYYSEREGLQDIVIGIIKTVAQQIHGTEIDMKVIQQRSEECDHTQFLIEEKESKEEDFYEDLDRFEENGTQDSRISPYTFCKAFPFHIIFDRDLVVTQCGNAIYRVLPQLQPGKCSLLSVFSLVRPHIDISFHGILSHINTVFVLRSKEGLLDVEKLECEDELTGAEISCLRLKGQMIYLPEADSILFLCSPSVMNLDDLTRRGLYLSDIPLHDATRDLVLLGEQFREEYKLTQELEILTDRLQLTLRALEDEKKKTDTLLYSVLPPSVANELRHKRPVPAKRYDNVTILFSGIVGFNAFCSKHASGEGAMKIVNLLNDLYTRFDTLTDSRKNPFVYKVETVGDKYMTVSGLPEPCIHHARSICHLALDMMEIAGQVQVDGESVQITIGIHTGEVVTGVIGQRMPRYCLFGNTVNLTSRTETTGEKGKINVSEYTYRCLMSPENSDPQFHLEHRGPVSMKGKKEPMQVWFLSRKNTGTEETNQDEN
Experimental: B-2. Effect on a Recombinant Guanylate Cyclase Reporter Cell Line
The cellular activity of the compounds of the invention is determined using a recombinant guanylate cyclase reporter cell line, as described in F. Wunder et al., Anal. Biochem. 2005, 339, 104-112. Representative values (MEC=minimum effective concentration) for the compounds of the invention are shown in the table below (Table 1B; in some cases as means of individual determinations): […]

| IC50 [1] [nM] | MEC [2] [µM] | Structure (SMILES) |
| --- | --- | --- |
| 9.3 | 0.3 | CC1(C)C(=O)Nc2nc(-c3nn(Cc4ccccc4F)c4ncccc34)nc(C(=O)NC3CCOC3=O)c21 (racemic) [Example 78, rac-2-[1-(2-fluorobenzyl)-1H-pyrazolo[3,4-b]pyridin-3-yl]-5,5-dimethyl-6-oxo-N-(2-oxotetrahydrofuran-3-yl)-6,7-dihydro-5H-pyrrolo[2,3-d]pyrimidine-4-carboxamide] |
| 30 | 0.3 | CCC(C)CNC(=O)c1nc(-c2nn(Cc3ccccc3F)c3ncccc23)nc2c1C(C)(C)C(=O)N2 (racemic) [Example 125, rac-2-[1-(2-fluorobenzyl)-1H-pyrazolo[3,4-b]pyridin-3-yl]-5,5-dimethyl-N-(2-methylbutyl)-6-oxo-6,7-dihydro-5H-pyrrolo[2,3-d]pyrimidine-4-carboxamide] |
| 150 | 0.01 | CN(C(=O)c1nc(-c2nn(Cc3ccccc3F)c3ncc(F)cc23)nc2c1C(C)(C)C(=O)N2)C1CC1 [Example 52] |
| – | 1 | CC(C)(C)CCNC(=O)c1nc(-c2nn(Cc3ccccc3F)c3ncccc23)nc2c1C(C)(C)C(=O)N2 [Example 135, N-(3,3-dimethylbutyl)-2-[1-(2-fluorobenzyl)-1H-pyrazolo[3,4-b]pyridin-3-yl]-5,5-dimethyl-6-oxo-6,7-dihydro-5H-pyrrolo[2,3-d]pyrimidine-4-carboxamide] |
| – | 0.3 | CC1(C)C(=O)Nc2nc(-c3nn(Cc4ccccc4F)c4ncccc34)nc(C(=O)NCC(N)=O)c21 [Example 75, N-(2-amino-2-oxoethyl)-2-[1-(2-fluorobenzyl)-1H-pyrazolo[3,4-b]pyridin-3-yl]-5,5-dimethyl-6-oxo-6,7-dihydro-5H-pyrrolo[2,3-d]pyrimidine-4-carboxamide] |
| – | 0.3 | CC(C)(C)CNC(=O)c1nc(-c2nn(Cc3ccccc3F)c3ncccc23)nc2c1C(C)(C)C(=O)N2 [Example 102, N-(2,2-dimethylpropyl)-2-[1-(2-fluorobenzyl)-1H-pyrazolo[3,4-b]pyridin-3-yl]-5,5-dimethyl-6-oxo-6,7-dihydro-5H-pyrrolo[2,3-d]pyrimidine-4-carboxamide] |
| – | 1 | CN(CCC(N)=O)C(=O)c1nc(-c2nn(Cc3ccccc3F)c3ncccc23)nc2c1C(C)(C)C(=O)N2 [Example 110, N-(3-amino-3-oxopropyl)-2-[1-(2-fluorobenzyl)-1H-pyrazolo[3,4-b]pyridin-3-yl]-N,5,5-trimethyl-6-oxo-6,7-dihydro-5H-pyrrolo[2,3-d]pyrimidine-4-carboxamide] |

The remaining lines, values behind:

| Structure (SMILES) | IC50 [1] [nM] | MEC [2] [µM] |
| --- | --- | --- |
| Cn1cnc(NC(=O)c2nc(-c3nn(Cc4ccccc4F)c4ncccc34)nc3c2C(C)(C)C(=O)N3)n1 [Example 109, 2-[1-(2-fluorobenzyl)-1H-pyrazolo[3,4-b]pyridin-3-yl]-5,5-dimethyl-N-(1-methyl-1H-1,2,4-triazol-3-yl)-6-oxo-6,7-dihydro-5H-pyrrolo[2,3-d]pyrimidine-4-carboxamide] | 39 | 0.3 |
| CC(N)(CNC(=O)c1nc(-c2nn(Cc3ncccc3F)c3ncc(F)cc23)nc2c1C(C)(C)C(=O)N2)CC(F)F (single isomer, unassigned; enantiomer a) [Example 55, ent-N-(2-Amino-4,4-difluoro-2-methylbutyl)-2-{5-fluoro-1-[(3-fluoropyridin-2-yl)methyl]-1H-pyrazolo[3,4-b]pyridin-3-yl}-5,5-dimethyl-6-oxo-6,7-dihydro-5H-pyrrolo[2,3-d]pyrimidine-4-carboxamide (enantiomer A)] | 190 | 3 |
| CC1(C(F)(F)F)C(=O)Nc2nc(-c3nn(Cc4ncccc4F)c4ncc(F)cc34)nc(C(N)=O)c21 (single isomer, unassigned; ent-2) [Example 23, ent-2-{5-Fluoro-1-[(3-fluoropyridin-2-yl)methyl]-1H-pyrazolo[3,4-b]pyridin-3-yl}-5-methyl-6-oxo-5-(trifluoromethyl)-6,7-dihydro-5H-pyrrolo[2,3-d]pyrimidine-4-carboxamide (enantiomer B)] | 1300 | 6.5 |
| CC1(C)C(=O)Nc2nc(-c3nn(Cc4ccccc4F)c4ncccc34)nc(C(=O)NCc3ccco3)c21 [Example 69, 2-[1-(2-fluorobenzyl)-1H-pyrazolo[3,4-b]pyridin-3-yl]-N-(furan-2-ylmethyl)-5,5-dimethyl-6-oxo-6,7-dihydro-5H-pyrrolo[2,3-d]pyrimidine-4-carboxamide] | 10 | 0.1 |
| Cc1nc2c(cc1F)c(-c1nc3c(c(C(=O)NC(C4CC4)C4CC4)n1)C(C)(C)C(=O)N3)nn2Cc1cccc(F)c1F [Example 39] | 34 | 0.3 |
| CC1(C)C(=O)Nc2nc(-c3nn(Cc4ccccc4F)c4ncccc34)nc(C(=O)Nc3ccncc3)c21 [Example 116, 2-[1-(2-fluorobenzyl)-1H-pyrazolo[3,4-b]pyridin-3-yl]-5,5-dimethyl-6-oxo-N-(pyridin-4-yl)-6,7-dihydro-5H-pyrrolo[2,3-d]pyrimidine-4-carboxamide] | – | 1 |
| Cc1cc(NC(=O)c2nc(-c3nn(Cc4ccccc4F)c4ncccc34)nc3c2C(C)(C)C(=O)N3)ccn1 [Example 106, 2-[1-(2-fluorobenzyl)-1H-pyrazolo[3,4-b]pyridin-3-yl]-5,5-dimethyl-N-(2-methylpyridin-4-yl)-6-oxo-6,7-dihydro-5H-pyrrolo[2,3-d]pyrimidine-4-carboxamide] | – | 0.3 |
| Cc1cnccc1NC(=O)c1nc(-c2nn(Cc3ccccc3F)c3ncccc23)nc2c1C(C)(C)C(=O)N2 [Example 101, 2-[1-(2-fluorobenzyl)-1H-pyrazolo[3,4-b]pyridin-3-yl]-5,5-dimethyl-N-(3-methylpyridin-4-yl)-6-oxo-6,7-dihydro-5H-pyrrolo[2,3-d]pyrimidine-4-carboxamide] | – | 0.3 |
| CCCCCCNC(=O)c1nc(-c2nn(Cc3ccccc3F)c3ncccc23)nc2c1C(C)(C)C(=O)N2 [Example 124, 2-[1-(2-fluorobenzyl)-1H-pyrazolo[3,4-b]pyridin-3-yl]-N-hexyl-5,5-dimethyl-6-oxo-6,7-dihydro-5H-pyrrolo[2,3-d]pyrimidine-4-carboxamide] | – | 1 |
